Laboratory results published in patent US11672786B2, “Methods of treating diseases associated with repeat instability” (The Hospital for Sick Children, priority 2016, dated 2023).
Values joined by “and” are separate entries in the source; they are usually repeats but may differ in a detail not shown here. Equal entries are not always repeated.

Tested on: HD fibroblasts (CAG)43
Assay: small-pool PCR across HD repeat tract, HD primary fibroblasts GM02191
Assay type: cell-based, human
Conditions: 40 days; for % Contraction / % Expansion / % Unchanged / Average repeat size: 50 uM NA
Procedure: The construction of the HT1080-(CAG)850 cell model was described previously (Sathasivam et al., 1997, Hum. Genet., 99:692-5). Briefly, HT1080 (ATCC) human fibrosarcoma cells were co-transfected with a plasmid (LC15-R) containing 800-850 (CTG)●(CAG) repeats (Nakatani et al., 2005, Nat. Chem. Biol., 1:39-43) and a plasmid encoding PhiC31 integrase. Transfection was performed with a Nucleofector (Lonza, Basel, Switzerland), and stably transfected clones were selected with puromycin. […] The HT1080-non-transcribing (CAG)850 cell model was established by transfecting a plasmid modified from pLC16 by inserting an additional SV40 polyadenylation signal downstream of the repeats (in addition to the original polyadenylation signals located upstream of the repeats), so that CAG/CTG repeats are floxed by transcription-terminator elements. The AttB-PhiC31 system has been widely used for single copy integration. […] The HT1080 model cells and an HD primary fibroblast cell line, GM09197 (Coriell Biorepository) with a large expanded allele of 180 CAG repeats and a non-expanded allele of 23 repeats (Sathasivam et al., 1997, Hum. Genet., 99:[…]), the HD primary fibroblast cell line, GM02191 (Coreill Biorepository) with an expanded allele of 43 CAG repeats and a non-expanded allele of 19 repeats, were cultured at 37° C. with 5% CO2 in Dulbecco's modified Eagle's medium supplemented with 10% fetal bovine serum and 1% penicillin/streptomycin. Cells were treated with or without continuous exposure to 50-μM NA for 30 days (HT1080 cells) or for 40 days (fibroblast cells). For experiments on non-proliferating cells, HT1080 cells were grown to confluence and then treated for the same period. WST-1 assay was performed according to the manufacturer's instructions (Roche, Basel, Switzerland). All cell lines were tested to be free of Mycoplasma. Three biological replicates were performed for each experiment.
Genomic DNA was extracted from HT1080-(CAG)850 clones and HD primary fibroblasts using the Gentra Puregene Cell Kit (Qiagen, Valencia, Calif.). The expanded (CTG)●(CAG) repeats were sized by small-pool PCR (sp-PCR) followed by Southern blot as described previously (Sathasivam et al., 1997, Hum. Genet., 99:692-5). For HT1080 models, small-pool PCR (spPCR) was performed with the input of 1.4-1.7 genome equivalents. The repeat size difference in the models is, at most, 3000 base-pairs, therefore, being strictly conservative, a bias toward amplifying the shorter allele can be possible, even under optimized PCR conditions described herein. For HD primary fibroblasts, sp-PCR & Southern blots were performed as described previously with slight modifications (Tome et al., 2013, PLoS Genet., 9:e1003280). Briefly, the PCR primers listed in Table 1 were used, and blots were hybridized with a DIG-labeled (CAG)7 locked nucleic acid probe (Nakamori et al. 2009, Neuromuscul. Disord., 19:759-62). At least 50 alleles were analyzed for each of the three experiments (more than 150 alleles for a total study). Repeat analyses are summarized in Table 2, compiled from complete small-pool-PCR datasets for each repetition of each experiment. For the histograms in FIGS. 4D, 4E, 10, 11, 5B, 5D, 5E, 14 and 15B, the Y-axis, “% of repeat population” was calculated by determining the proportion of >50 individual small-pool PCR reactions across the CAG repeat tract, that harbored a certain size of repeat product with a certain length. Cell clones were grown 30 or 40 days with or without NA (see, for example, Sathasivam et al., 1997, Hum. Genet., 99:692-5). Specifically, the histograms of repeat length distributions were from at least two different cell clones. Length distributions were determined as follows: Small-pool PCR followed by Southern blot for analysis of CAG/CTG repeat length.

[1] = single experiments Ex 1-3, cut-off ±10 repeats

In the case of naphthyridine-azaquinolone, the “lowest repeat length reached by contractions” value (50 μM NA, HD disease threshold 35 units) is reported as no less than 20 repeats, the “% Contraction” value (Total) is reported as 25.3% and the “% Expansion” value (Total) is reported as 4.9%. The “% Unchanged” value (Total) was 69.8%, the Average repeat size (Total) was 40.7 number of repeats and the “% Unchanged” value (single experiments Ex 1-3) was 67.0% and 69.2% and 73.2%. The Average repeat size (single experiments Ex 1-3) was 40.6 number of repeats and 40.4 number of repeats and 41.0 number of repeats, the “% Contraction” value [1] was 28.4% and 25.2% and 22.3% and the “% Expansion” value [1] was 4.6% and 5.6% and 4.5%.
